Results taken from a melting point compilation (Tetko et al.; mined from patent text by program, amines drawn as free bases though some values may be those of a salt).
Residues, ends and D or L forms follow the SMILES beside them. *: point of attachment. Cbz = O=C(OCc1ccccc1)*

| Structure (SMILES) | melting point [°C] |
| --- | --- |
| COc1ccc(C(=O)c2cnn(C)c2O)c(Cl)c1N=C1CCCCS1=O (stereo unspecified) | 89 to 91 |
| Nc1[nH]c(=O)c(C(=O)NCC2CCN(CC3CCCCC3)CC2)cc1Cl | 142 to 146 |
| COc1cc(-c2nnc(C)s2)cc2oc(=O)c(Cl)c(C)c12 | 176 to 177 |
| C[C@@H]1O[C@](/C=C/C2CC2)(C(F)(F)F)c2cc(Cl)ccc2NC1=O (relative stereo) | 171 to 172 |
| Cc1cc(C#CC(C)(C)O)cc(C)c1Oc1ccc([N+](=O)[O-])c(Nc2ccc(C#N)cc2)n1 | 114 to 116 |
| Cc1oc(-c2cccc([N+](=O)[O-])c2)nc1CCl | 111 to 113 |
| CCCc1cnc2c(c1)C(=O)OC2=O | 42 to 44 |
| Cc1cc(Oc2ccc(NC(=O)N(C)C)cc2)nc(Cl)n1 | 176 to 178 |
| O=C1c2ccccc2C(=O)N1CCCC#Cc1ccccn1 | 127 to 129 |
| Cc1cc(C(=O)N2Cc3ccc(C(=O)N(CCCN(C)C)CCCN(C)C)n3Cc3ccccc32)ccc1-c1ccccc1C(F)(F)F | 55 to 64 |
| COc1cc2c(C)csc2c(Cl)c1Cl | 122 to 124 |
| Cc1ccc(S(=O)(=O)NN=CC(Cl)Cl)cc1 | 123 |
| C[C@H](OC(=O)NCCC(F)(F)C(F)(F)F)C(=O)N[C@@H]1C(=O)N(CCO)c2ccccc2-c2ccccc21 | 181 to 184 |
| O=C1c2cccc3cccc(c23)C(=O)N1CCN1CCC(O)(c2ccccc2)CC1 | 177 to 179 |
| CC(C)(N)CNC(=O)Cc1ccccc1 | 68 to 71 |
| CCCNS(=O)(=O)c1cc(C(=O)CBr)ccc1Cl | 96 |
| COc1ccc(S(=O)(=O)Nc2ccc(F)cc2Nc2ccccc2)cc1 | 173 to 174 |
| CCN1C(=O)c2cccnc2N(C)c2nc(-c3ccc[nH]3)ccc21 | 161 to 162 |
| Cc1cccc(C(N)=O)c1Nc1nc(Nc2ccc3c(c2)C(C)(C)CCC(=O)N3)ncc1Cl | 220 to 222 |
| Cc1cc(I)cc(CO)c1N | 101 to 103 |
| Nc1cc(C(=O)c2cccc(C(=O)c3ccc(F)c(N)c3)c2)ccc1F | 170 to 171 |
| CC(C)N1CCN(c2ccc(-c3[nH]nc4c3C(=O)c3c(NC(=O)NN5CCOCC5)cccc3-4)cc2)CC1 | 253 |
| Cn1c(=O)[nH]c2cc(Cl)cc(Cl)c2c1=O | 247 to 250 |
| C[C@@H]1CN(c2ncc(Cl)cc2Cl)CCN1c1nc2c(Br)cc(C(F)(F)F)cc2[nH]1 | 135 to 137 |
| Nc1cc2c(cc1Br)C(=O)OC2 | 235 to 241 |
| O=C(O)c1cc(-n2c3c(c(-c4ccccc4)c2-c2ccccc2)CCCC3)ccc1O | 246 to 247 |

| Structure (SMILES) | melting point [°C] |
| --- | --- |
| COC(=O)C1CCN(c2ccc3nc4[nH]c(=O)[nH]c4cc3c2)CC1 | > 310 |
| Cc1cnc(C(=O)c2[nH]c3cc(Cl)ccc3c2CC(=O)O)cc1C | 226 to 228 |
| Cc1c(SCCCSc2ccc3ncc([N+](=O)[O-])n3n2)ccnc1CO | 127 to 129 |
| COc1ccc(N=C(C#Cc2ccccc2)N2CCCN(Cc3ccc(C)cc3)CC2)cc1 | 66 |
| CNc1nc(C)c(-c2sc(NC)nc2C)s1 | > 280 |
| CCOC(=O)c1cc2c3n(ccc-2n1)CC(c1cccc(OC)c1)=N3 | 198 to 200 |
| COc1ccc(CCc2oc3ccc(Br)cc3c2CO)cc1 | 65 to 75 |
| CN1C(=O)CCC(=O)N1c1cc(-c2ccnc(Nc3cccc(Cl)c3)n2)ccn1 | 201 to 204 |
| CC(=O)NCCSc1c(Cl)cc(N)c(C)c1N | 111 |
| CCC(NC(=O)C(F)F)c1ccc(Cl)c2nc3n(c12)CCCN3c1ccc(Cl)cc1Cl (stereo unspecified) | 248 to 250 |
| O=C(O)c1ccccc1COc1cccc(Cl)c1 | 154 to 155 |
| O=C(C1COc2ccc([N+](=O)[O-])cc21)N1CCCCC1 (stereo unspecified) | 108 to 114 |
| Cc1cc(C)c(-c2cc(O)c(SCc3ccccc3)c(=O)o2)c(C)c1 | 134 to 136 |
| O=C(NC/C=C/c1ccccc1)c1ccc(OC(F)(F)F)cc1 | 136 |
| CCOC(=O)n1c(C(=O)c2ccc(F)cc2)c(NC(C)=O)c2ccc(Cl)cc21 | 196 to 198 |
| Cc1ccc(S(=O)(=O)OCC2CCc3sc(C)nc3C2)cc1 (stereo unspecified) | 105 to 106 |
| CCCCCCCCCCCc1cc2ccc(C(=O)O)cc2n1C | 165 to 168 |
| O=C1CCCc2cc(O)c(Cl)c(Cl)c21 | 244 to 246 |
| OCC1OC(n2c(Cl)nc3cc(Cl)c(Cl)cc32)C(F)C1O (stereo unspecified) | 223 |
| CCCC(=O)c1cnc2c(OC)csc2c1Cl | 76 to 78 |
| Oc1ccccc1[C@@H]1C[C@H]2C=C(c3c[nH]c(-c4ccc(F)cc4)c3-c3ccncc3)CCN2C1 | 195 to 196 |
| Nc1nc(N)nc(-c2ccc(S(=O)(=O)c3ccccc3)cc2)n1 | > 250 |
| Nc1ccccc1OC1CCCCC1 | 55 to 56 |
| COC(=O)C(Cc1ccccc1)NC(=O)C(CC(N)=O)NC(=O)OCc1ccccc1 (stereo not drawn) (Cbz-Asn-Phe-OMe; configuration not given here) | 196 to 197 |
| CCCCCC(=O)NC(=O)C(c1ccccc1)c1ccccc1 | 87 |
| Nc1nc(N)c2c(ccc3[nH]c(-c4ccccc4)cc32)n1 | 322 to 323 |

| Structure (SMILES) | melting point [°C] |
| --- | --- |
| COC(=O)c1ccc(CC(C)NCC(O)c2ccc(O)c(C)c2)cc1 (stereo unspecified) | 103 to 107 |
| COc1ccc(Cn2c(S)nc3ccccc32)cc1 | 199 to 200 |
| CCN(CC)c1cccc2nc3n(c12)C=CCCN3c1ccc(Cl)cc1Cl | 105 to 106 |
| NS(=O)(=O)c1cc(C=O)co1 | 281 to 284 |
| CC12CCC(=O)C=C1CCC1C2CCC2(C)C(C(F)F)CCC12 (stereo unspecified) | 137 to 140 |
| CC(C)=Nn1c(C(F)(F)F)cc(=O)n(-c2cc(Oc3ccccc3[N+](=O)[O-])c(Cl)cc2F)c1=O | 173 to 176 |
| CC1CC(=O)NN=C1c1ccc2nc(C3CC3)n(Cc3ccc(-c4ccccc4-c4nnn[nH]4)cc3)c2c1 (stereo unspecified) | 216 |
| CCc1ccc2c(c1)OC1(O)c3cccc([N+](=O)[O-])c3C(=O)C21O (stereo unspecified) | 110 to 120 |
| CCC(=O)C1=C(O)CC(c2cccc(O)c2)CC1=O (stereo unspecified) | 124 to 131 |
| CC1(C)c2cccnc2C(=O)c2ccc(Cl)cc2S1(=O)=O | 189 to 191 |
| CC(=O)Nc1nc2cnccc2s1 | > 212 |
| CCCOc1c(OC)c(OC)cc(C)c1C(=O)c1c(Cl)cccc1Cl | 143 |
| COc1ccc(-c2nc(CCO)nc3cc(OC)c(OC)cc23)cc1OC | 165 to 166 |
| COc1ccc(OC2SCC(O)C(O)C2O)cn1 (stereo unspecified) | 159 to 161 |
| CCOC(=O)CCc1nc(-c2cc3ccccc3o2)cs1 | 65 to 66 |
| N#CC1=C(C2CCN(C(=O)c3ccccc3)CC2)Nc2n[nH]cc2C1c1cccc(C#N)c1Br (stereo unspecified) | > 280 |
| Cc1oc(-c2ccccc2)nc1COc1ccc(C(C)CCC2SC(=O)NC2=O)cc1 (stereo unspecified) | 64 to 65 |
| CCOC(=O)c1c(C)cc2c(c1C)c(=O)n(-c1ccccc1Cl)c(=O)n2C(=O)O | 182 to 183 |
| Cc1cccc(NC(=O)NCC(=O)N(CC(=O)OCC(F)(F)F)c2ccccc2)c1 | 172 |
| CC(C)(C)OC(=O)Nc1cc(N2CCC(OC3CCCCO3)CC2)c(-c2ccc(F)cc2)cc1N (racemic) | 157 to 161 |
| CC(=O)C(=[N+]=[N-])C(=O)c1ccccn1 | 69 to 74 |
| CCn1cc(C(=O)O)c(=O)c2c(F)c(F)c(N3CCCC3)c(F)c21 | > 320 |
| O=C1OC(=O)c2cc3c(cc21)OCO3 | 189 to 191 |
| CSC(NCCNC(=O)OC(C)(C)C)=C(C#N)C#N | 123 to 125 |
| Nc1nccnc1-c1cc(Cl)cc(Cl)c1Cl | 142 to 143 |
| O=S(=O)(NCCNCC=Cc1ccc(Cl)cc1)c1cccc2cnccc12 | 120 to 123 |

| Structure (SMILES) | melting point [°C] |
| --- | --- |
| O=C(c1nccs1)c1cnn2c(-c3cccnc3)ccnc12 | 262 to 264 |
| COC(=O)c1ccc(CNc2ccc(C)c(Nc3nccc(-c4cccnc4)n3)c2)cc1 | 158 |
| CCC(=O)Nc1cc(OC)cc2c1CC(C)O2 (stereo unspecified) | 101 |
| COC(=O)Cn1c(=O)c2ccccc2n(CCCN2CCC(OC(c3ccccc3)c3ccccc3)CC2)c1=O | 109 to 110 |
| Cc1cc2c(cc1Br)-c1cc(C)c(Br)c(C)c1OP2(=O)O | 240 |
| CN1NC(=O)CSC1=Nc1ccc(Cl)c(Cl)c1 | 118 to 120 |
| CC(C)c1ccc([N+](=O)[O-])c(C(C)C)c1NC(=O)CN1CCN(CCSc2nc3cccc(C(F)(F)F)c3o2)CC1 | 115 to 117 |
| COc1ccc(C(=O)Nc2ccc(F)cc2)cc1Nc1ccc(F)cc1 | 193 to 194 |
| Cc1[nH]c2ccccc2c1CC(=O)N1CCN(C(c2ccc(F)cc2)c2ccc(F)cc2)CC1 | 93 to 103 |
| COc1ccc(C(=O)Nc2c(Cl)cc(N)cc2Cl)cc1OC1CCCC1 | 170 to 172 |
| CC(Br)C(=O)OCN1C(=O)NC(c2ccccc2)(c2ccccc2)C1=O (stereo unspecified) | 112 to 115 |
| Clc1ccc(C=CC=Cc2ccccc2)cc1 | 161 |
| CC(=O)CNc1ccc(/C=C/C(=O)O)cc1 | 213 to 215 |
| COc1ccc(NC(=O)c2ccccc2N)cc1 | 116 to 117 |
| CC1CC2C3CCC4=CC(=O)CCC4=C3C(c3ccc(-c4cccnc4)cc3)CC2(C)C1C(=O)C1CC1 (stereo unspecified) | 206 |
| CCCCCCCCCCCCCCCCCCOc1cc(C(=O)O)cc(C(=O)N(CC(=O)O)CC(=O)O)c1 | 108 to 112 |
| N#Cc1c2c(c3c(c1N1CCCCC1)Cc1ccccc1-3)-c1ccccc1C2 | 200 to 202 |
| CN(c1ccc(F)cc1)c1nc(=O)c2cccnc2s1 | 184 to 185 |
| CC(C)(C)N(NC(=O)c1cnccn1)C(=O)c1ccccc1 | 181 to 183 |
| CCOC(=O)c1cnn(-c2ccc(OC)cc2)c1N | 209 to 211 |
| CCCc1nc2c(N)nc3ccccc3c2n1CC(C)(C)OCCS(C)(=O)=O | 203 to 206 |
| CCC(C)(C)Nc1c(NCc2ccc(C)c(Cl)c2)c(=O)c1=O | 261 to 263 |
| O=C(Nc1n[nH]c(=S)s1)NC(Cc1ccccc1)C(=O)NCCCc1ccccc1 (stereo unspecified) | 190 to 191 |
